Reference: ChEMBL document CHEMBL3039007, “Structure-based identification of OATP1B1/3 inhibitors” (Mol Pharmacol, 2013)

Key:
[1] = target: T1, Solute carrier organic anion transporter family member 1B1 (Homo sapiens, UniProt Q9Y6L6); details: chinese hamster, cho, 10 µM
T1 sequence (Q9Y6L6 whole entry): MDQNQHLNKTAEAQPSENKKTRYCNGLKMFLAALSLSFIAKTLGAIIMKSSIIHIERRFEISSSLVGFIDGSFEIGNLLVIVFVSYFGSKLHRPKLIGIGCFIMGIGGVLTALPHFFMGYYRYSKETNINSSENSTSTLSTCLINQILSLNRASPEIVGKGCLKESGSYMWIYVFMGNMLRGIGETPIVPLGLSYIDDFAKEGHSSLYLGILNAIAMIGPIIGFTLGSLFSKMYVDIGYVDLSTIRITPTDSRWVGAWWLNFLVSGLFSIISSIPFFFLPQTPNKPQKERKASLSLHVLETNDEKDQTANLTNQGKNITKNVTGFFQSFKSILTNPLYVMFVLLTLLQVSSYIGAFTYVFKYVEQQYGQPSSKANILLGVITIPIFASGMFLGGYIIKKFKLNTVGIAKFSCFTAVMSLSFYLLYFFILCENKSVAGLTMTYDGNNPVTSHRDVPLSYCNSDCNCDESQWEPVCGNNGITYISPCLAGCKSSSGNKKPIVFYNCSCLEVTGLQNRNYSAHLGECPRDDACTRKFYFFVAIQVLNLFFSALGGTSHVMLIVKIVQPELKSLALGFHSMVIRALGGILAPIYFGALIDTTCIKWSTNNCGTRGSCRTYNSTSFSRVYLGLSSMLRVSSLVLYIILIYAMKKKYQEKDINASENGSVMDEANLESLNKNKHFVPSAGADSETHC

[2] = target: T2, Solute carrier organic anion transporter family member 1B3 (Homo sapiens, UniProt Q9NPD5); details: chinese hamster, cho, 10 µM
T2 sequence (Q9NPD5 whole entry): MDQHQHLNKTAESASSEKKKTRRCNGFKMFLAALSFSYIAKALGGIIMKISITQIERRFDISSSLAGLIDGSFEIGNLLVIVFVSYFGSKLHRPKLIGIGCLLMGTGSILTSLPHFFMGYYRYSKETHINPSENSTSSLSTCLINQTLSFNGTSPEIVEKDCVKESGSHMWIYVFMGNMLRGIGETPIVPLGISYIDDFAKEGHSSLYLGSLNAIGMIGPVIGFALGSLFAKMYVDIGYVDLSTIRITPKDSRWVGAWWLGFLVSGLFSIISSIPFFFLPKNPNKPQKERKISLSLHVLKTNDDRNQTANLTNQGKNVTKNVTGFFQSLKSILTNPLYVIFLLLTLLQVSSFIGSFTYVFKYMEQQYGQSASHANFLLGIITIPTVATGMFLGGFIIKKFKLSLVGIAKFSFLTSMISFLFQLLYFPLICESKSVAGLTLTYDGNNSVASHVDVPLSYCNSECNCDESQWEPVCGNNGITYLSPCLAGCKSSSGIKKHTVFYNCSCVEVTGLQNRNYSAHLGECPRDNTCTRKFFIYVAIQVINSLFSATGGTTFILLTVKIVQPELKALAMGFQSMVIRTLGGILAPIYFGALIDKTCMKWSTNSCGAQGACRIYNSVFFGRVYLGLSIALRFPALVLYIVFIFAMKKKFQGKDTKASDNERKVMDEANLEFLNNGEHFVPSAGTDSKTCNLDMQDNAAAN

SMILES	residual activity [1]	residual activity [2]
COc1ccc(/C=C/c2cc(O)cc(O[C@@H]3O[C@H](CO)[C@@H](O)[C@H](O)[C@H]3O)c2)cc1O [RHAPONTIN]	166.2%	100.6%
CC(C(=O)O)c1ccc(C(=O)c2cccs2)cc1 (stereo unspecified) [SUPROFEN]	108.5%	96.21%
O[C@@H]1C[C@H]2CCC[C@@H](C1)N2Cc1ccccc1 [N-BENZYLTROPAN-4-OL]	92.31%	88.98%
COc1cc(/C=C/CO)ccc1O [CONIFERYL ALCOHOL]	49.7%	66.12%
CC[N+](C)(C)c1cccc(O)c1.[Cl-] [EDROPHONIUM CHLORIDE]	79.44%	93.08%
c1coc(CNc2ncnc3[nH]cnc23)c1 [KINETIN]	96.48%	100.6%
CS(=O)(=O)CCCCN=C=S [ERYSOLIN]	108.6%	72.62%
C=CCC1(C(C)CCC)C(=O)N=C([S-])NC1=O.[Na+] (stereo unspecified) [THIAMYLAL SODIUM]	84.73%	103.8%
CC(C)C[C@H]1C(=O)N2CCC[C@H]2[C@]2(O)O[C@](NC(=O)[C@@H]3C=C4c5cccc6[nH]c(Br)c(c56)C[C@H]4N(C)C3)(C(C)C)C(=O)N12.CS(=O)(=O)O [BROMOCRIPTINE MESYLATE]	67.37%	84.69%
O=C(O)c1ccccc1Nc1cccc(C(F)(F)F)c1 [FLUFENAMIC ACID]	211.3%	64.03%
CO[C@H]1/C=C/O[C@@]2(C)Oc3c(C)c(O)c4c(O)c(c(/C=N/N5CCN(C)CC5)c(O)c4c3C2=O)NC(=O)/C(C)=C\C=C\[C@H](C)[C@H](O)[C@@H](C)[C@@H](O)[C@@H](C)[C@H](OC(C)=O)[C@@H]1C [RIFAMPIN]	33.63%	22.01%
CS(C)(=O)=O [DIMETHYL SULFONE]	115.1%	102.7%
CNC[C@H](O)c1cccc(O)c1.Cl [PHENYLEPHRINE HYDROCHLORIDE]	91.9%	106.2%
CC(=O)O[C@H]1C[C@@H](OC(C)=O)C(C)(C)[C@@H]2C[C@@H](OC(C)=O)[C@@]3(C)C4=CC(=O)O[C@@H](c5ccoc5)[C@]4(C)CC[C@@H]3[C@@]12C	107.2%	104.2%
N=C(N)N [GUANIDINE]	106.5%	100%
COc1cc2cc3c4cc(OC)c(OC)cc4cc[n+]3c(C)c2cc1OC.[Cl-] [CORALYNE]	106.5%	150.5%
O=C(OCc1ccccc1)c1ccccc1 [BENZYL BENZOATE]	125.1%	74.09%
Cl.O=C(O)c1cn(-c2ccc(F)cc2)c2cc(N3CCNCC3)c(F)cc2c1=O [SARAFLOXACIN HYDROCHLORIDE]	109.6%	115.6%
CC(C(=O)O)c1cccc(Oc2ccccc2)c1 (stereo unspecified) [FENOPROFEN]	160.2%	96.37%
C[C@H](N)CO [L-ALANINOL]	73.39%	104%
O=C(O)CCCCCCCCCCCC[C@@H]1C=CCC1 [CHAULMOOGRIC ACID]	83.53%	82.39%
CC(=O)OCC(=O)[C@@]1(O)CC[C@H]2[C@@H]3CCC4=CC(=O)CC[C@]4(C)[C@H]3[C@@H](O)C[C@@]21C [HYDROCORTISONE ACETATE]	93.94%	91.1%
Cl.Nc1ccc(/N=N/c2ccccc2)c(N)n1 [PHENAZOPYRIDINE HYDROCHLORIDE]	115.4%	115.3%
CCCn1cnc2c1c(=O)n(CCCCC(C)=O)c(=O)n2C [PROPENTOFYLLINE]	126.3%	110.4%

SMILES	residual activity [1]	residual activity [2]
O=C(O)c1cc(O)c2c(c1)C(=O)c1cc(O)cc(O)c1C2=O [EMODIC ACID]	150%	72.9%
CC(C)=CCc1c2c(c3occ(-c4ccc(O)c(O)c4)c(=O)c3c1O)C=CC(C)(C)O2 [POMIFERIN]	114.2%	87.87%
COc1ccc(-c2cc(=O)c3c(O)c(OC)c(O[C@@H]4O[C@H](CO[C@@H]5O[C@@H](C)[C@H](O)[C@@H](O)[C@H]5O)[C@@H](O)[C@H](O)[C@H]4O)cc3o2)cc1 [PECTOLINARIN]	39.1%	155.8%
C=C[C@H]1CN2CC[C@H]1C[C@H]2[C@H](O)c1ccnc2ccccc12 [CINCHONIDINE]	86.58%	111.1%
CN(C)CCC(c1ccc(Br)cc1)c1ccccn1.O=C(O)/C=C\C(=O)O (stereo unspecified) [BROMPHENIRAMINE MALEATE]	88.52%	90.7%
C[C@]12C=CC(=O)C=C1CC[C@@H]1[C@@H]2[C@@H](O)C[C@@]2(C)[C@H]1CC[C@]2(O)C(=O)CO [PREDNISOLONE]	79.83%	110.4%
CC(N/C(=N\C#N)Nc1ccncc1)C(C)(C)C (stereo unspecified) [PINACIDIL ANHYDROUS]	96.43%	90.66%
C=C1C(=O)O[C@@H]2C[C@@]3(C)CCC[C@H](C)C3=C[C@H]12 [HELENINE]	116%	115.2%
CCCNC(C)C(=O)Nc1ccccc1C.Cl (stereo unspecified) [PRILOCAINE HYDROCHLORIDE]	87.24%	74.6%
Cn1nnnc1SCC1=C(C(=O)[O-])N2C(=O)[C@@H](NC(=O)[C@H](OC=O)c3ccccc3)[C@H]2SC1.[Na+] [CEFAMANDOLE NAFATE]	63%	64.97%
CCc1cn([C@H]2C[C@H](O)[C@@H](CO)O2)c(=O)[nH]c1=O [EDOXUDINE]	92.48%	109.7%
C=C(C)C1Cc2c(ccc(C(=O)O)c2O)O1 (stereo unspecified) [TUBAIC ACID]	158.2%	80.8%
COc1cccc(OC)c1OCCNCC1COc2ccccc2O1.Cl (stereo unspecified) [2- (2,6-DIMETHOXYPHENOXYETHYL)AMINOMETHYL-1,4-BENZODIOXANE HYDROCHLORIDE (WB 4101)]	247.1%	96.02%
Cl.NCCc1ccc(S(=O)(=O)F)cc1 [4-AMINOETHYLBENZENESULFONYL FLUORIDE HYDROCHLORIDE]	71.73%	100%
Nc1ccn([C@@H]2O[C@H](CO)[C@@H](O)[C@@H]2O)c(=O)n1 [CYTARABINE]	78.64%	95.76%
Nc1nc(/C(=C/CC(=O)O)C(=O)N[C@@H]2C(=O)N3C(C(=O)O)=CCS[C@H]23)cs1 [CEFTIBUTEN]	90.54%	84.47%
COC(=O)c1c(C)cc(O)cc1O [METHYL ORSELLINATE]	90.83%	98.38%
Cn1c(=O)c2c(ncn2CC(O)CO)n(C)c1=O (stereo unspecified) [DYPHYLLINE]	92.75%	94.34%
CN[C@H](CC(=O)O)C(=O)O [N-METHYL-D-ASPARTIC ACID (NMDA)]	101.6%	98.22%
COc1ccc2[nH]cc(CCNC(C)=O)c2c1 [MELATONIN]	71.02%	91.63%
CCCC(C)C1(CC)C(=O)[N-]C(=S)NC1=O.[Na+] (stereo unspecified) [THIOPENTAL SODIUM]	73.02%	84.51%
CC(C)CCCCCOC(=O)COc1cc(Cl)c(Cl)cc1Cl	105.5%	93.76%
COC(=O)CCCOc1ccc(Cl)cc1Cl	118.1%	115.5%
O=[N+]([O-])c1ccc(O)c([N+](=O)[O-])c1 [2,4-DINITROPHENOL]	75.05%	78.36%
